This test has as its system P388. In words: Antitumor activity against mouse P388 cells. It is filed as functional. Particulars: read-out: ED50 (the source's name).
As for `C[C@@H]1[C@@]2(CC[C@](C)(O)CO2)O[C@H]2C=C3[C@@H]4[C@@H](O)C[C@H]5Cc6nc7c(nc6C[C@]5(C)[C@H]4C[C@@H](O)[C@]3(C)[C@]21O)C[C@@H]1CC[C@H]2[C@H]3C[C@@H]4O[C@]5(CCC(C)(C)O5)C[C@@H]4[C@@]3(C)[C@H](O)C[C@@H]2[C@@]1(C)C7` [RITTERAZINE F], the EC50 worked out at 0.81 nM.
Next, `C[C@@H]1[C@@]2(CC[C@](C)(O)CO2)O[C@H]2C=C3[C@@H]4[C@@H](O)C[C@H]5Cc6nc7c(nc6C[C@]5(C)[C@H]4C[C@@H](O)[C@]3(C)[C@]21O)C[C@@H]1CC[C@H]2C3=C[C@@H]4O[C@]5(CCC(C)(C)O5)C[C@@H]4[C@@]3(C)[C@H](O)C[C@@H]2[C@@]1(C)C7` [RITTERAZINE G]: 0.81 nM.
The same measure for `C[C@@H]1[C@@]2(CC[C@](C)(O)CO2)O[C@H]2C=C3[C@@H]4[C@@H](O)C[C@H]5Cc6nc7c(nc6C[C@]5(C)[C@H]4C[C@@H](O)[C@]3(C)[C@]21O)C[C@@H]1CC[C@H]2[C@H]3C[C@@H]4O[C@@]5(CCC(C)(C)O5)C[C@@H]4[C@@]3(C)C(=O)C[C@@H]2[C@@]1(C)C7` [RITTERAZINE H]: 17.8 nM; for `C[C@@H]1[C@@]2(CC[C@](C)(O)CO2)O[C@H]2C=C3[C@@H]4[C@@H](O)C[C@H]5Cc6nc7c(nc6C[C@]5(C)[C@H]4C[C@@H](O)[C@]3(C)[C@]21O)C[C@@H]1CC[C@@H]2[C@H](CC(=O)[C@]3(C)[C@H]4C[C@@]5(CCC(C)(C)O5)O[C@H]4C[C@]23O)[C@@]1(C)C7` [RITTERAZINE I]: 15.3 nM; for `C[C@@H]1[C@@]2(CC[C@](C)(O)CO2)O[C@H]2C=C3[C@@H]4[C@@H](O)C[C@H]5Cc6nc7c(nc6C[C@]5(C)[C@H]4C[C@@H](O)[C@]3(C)[C@]21O)C[C@@H]1CC[C@H]2C3=C[C@@H]4O[C@]5(CC[C@@](C)(O)CO5)[C@@H](C)[C@]4(O)[C@@]3(C)[C@H](O)C[C@@H]2[C@@]1(C)C7` [RITTERAZINE J]: 14 nM.
Next, `C[C@@H]1[C@@]2(CC[C@](C)(O)CO2)O[C@H]2C=C3[C@H]4CC[C@H]5Cc6nc7c(nc6C[C@]5(C)[C@H]4C[C@@H](O)[C@]3(C)[C@]21O)C[C@@H]1CC[C@H]2C3=C[C@@H]4O[C@]5(CC[C@@](C)(O)CO5)[C@@H](C)[C@]4(O)[C@@]3(C)[C@H](O)C[C@@H]2[C@@]1(C)C7` [RITTERAZINE K]: 10.4 nM; `C[C@@H]1[C@@]2(CC[C@](C)(O)CO2)O[C@H]2C=C3[C@@H]4CC[C@H]5Cc6nc7c(nc6C[C@]5(C)[C@H]4C[C@@H](O)[C@]3(C)[C@]21O)C[C@@H]1CC[C@H]2C3=C[C@@H]4O[C@]5(CC[C@@](C)(O)CO5)[C@@H](C)[C@@H]4[C@@]3(C)[C@H](O)C[C@@H]2[C@@]1(C)C7` [RITTERAZINE L]: 11.1 nM; `C[C@@H]1[C@@]2(CC[C@](C)(O)CO2)O[C@H]2C=C3[C@@H]4CC[C@H]5Cc6nc7c(nc6C[C@]5(C)[C@H]4C[C@@H](O)[C@]3(C)[C@]21O)C[C@@H]1CC[C@H]2C3=C[C@@H]4O[C@@]5(CC[C@](C)(O)CO5)[C@@H](C)[C@@H]4[C@@]3(C)[C@H](O)C[C@@H]2[C@@]1(C)C7` [RITTERAZINE M]: 16.7 nM.
With `C[C@H]1[C@H]2[C@H](C[C@]3(C(=O)C[C@@H]4[C@H]3CC[C@H]3Cc5nc6c(nc5C[C@@]34C)C[C@@H]3CC[C@@H]4[C@H](CC(=O)[C@]45C[C@@H]4O[C@@]7(CCC(C)(C)O7)[C@@H](C)[C@@H]4[C@]5(C)O)[C@@]3(C)C6)[C@@]2(C)O)O[C@@]12CCC(C)(C)O2` [RITTERAZINE N], the EC50 worked out at 522 nM.
Next, `C[C@H]1[C@H]2[C@H](C[C@]3(C(=O)C[C@@H]4[C@H]3CC[C@H]3Cc5nc6c(nc5C[C@@]34C)C[C@@H]3CC[C@@H]4[C@H](CC(=O)[C@]45C[C@@H]4O[C@@]7(CCC(C)(C)O7)[C@@H](C)[C@@H]4[C@]5(C)O)[C@@]3(C)C6)[C@@]2(C)O)O[C@]12CCC(C)(C)O2` [RITTERAZINE O]: 2380 nM.
As to `C[C@H]1[C@H]2[C@H](C[C@@H]3[C@@H]4CC[C@H]5Cc6nc7c(nc6C[C@]5(C)[C@H]4C[C@@H](O)[C@]23C)C[C@@H]2CC[C@@H]3[C@@H](CC(=O)[C@]34C[C@@H]3O[C@@]5(CCC(C)(C)O5)[C@@H](C)[C@@H]3[C@]4(C)O)[C@@]2(C)C7)O[C@@]12CCC(C)(C)O2` [RITTERAZINE P], the EC50 was determined as 819 nM.
The same measure for `C[C@H]1[C@H]2[C@H](C[C@@H]3[C@@H]4CC[C@H]5Cc6nc7c(nc6C[C@]5(C)[C@H]4C[C@@H](O)[C@]23C)C[C@@H]2CC[C@@H]3[C@@H](CC(=O)[C@]34C[C@@H]3O[C@]5(CCC(C)(C)O5)[C@@H](C)[C@@H]3[C@]4(C)O)[C@@]2(C)C7)O[C@@]12CCC(C)(C)O2` [RITTERAZINE Q]: 657 nM; for `C[C@H]1[C@H]2[C@H](C[C@@H]3[C@@H]4CC[C@H]5Cc6nc7c(nc6C[C@]5(C)[C@@H]4C[C@@H](O)[C@]23C)C[C@@H]2CC[C@H]3[C@H]4C[C@@H]5O[C@@]6(CCC(C)(C)O6)[C@@H](C)[C@@H]5[C@@]4(C)[C@H](O)C[C@@H]3[C@@]2(C)C7)O[C@@]12CCC(C)(C)O2` [RITTERAZINE R]: 2460 nM; for `C[C@H]1[C@H]2[C@H](C[C@@H]3[C@@H]4CC[C@H]5Cc6nc7c(nc6C[C@]5(C)[C@@H]4C[C@@H](O)[C@]23C)C[C@@H]2CC[C@H]3[C@H]4C[C@@H]5O[C@@]6(CCC(C)(C)O6)[C@@H](C)[C@@H]5[C@@]4(C)[C@H](O)C[C@@H]3[C@@]2(C)C7)O[C@]12CCC(C)(C)O2` [RITTERAZINE S]: 539 nM.
Next, `C[C@H]1[C@H]2[C@H](C=C3[C@@H]4CC[C@H]5Cc6nc7c(nc6C[C@]5(C)[C@@H]4C[C@@H](O)[C@@]32C)C[C@@H]2CC[C@@H]3[C@H](CC(=O)[C@]34C[C@@H]3O[C@@]5(CCC(C)(C)O5)[C@@H](C)[C@@H]3[C@]4(C)O)[C@@]2(C)C7)O[C@]12CC[C@](C)(O)CO2` [RITTERAZINE T]: 522 nM.
The same measure for `C[C@H]1[C@H]2[C@H](C[C@]3(C(=O)C[C@H]4[C@H]3CC[C@H]3Cc5nc6c(nc5C[C@@]34C)C[C@@H]3CC[C@@H]4[C@@H](CC(=O)[C@]5(C)[C@@H]7[C@H](C[C@]45O)O[C@]4(CC[C@](C)(O)CO4)[C@H]7C)[C@@]3(C)C6)[C@@]2(C)O)O[C@@]12CCC(C)(C)O2` [RITTERAZINE U]: 2340 nM.
Regarding `C[C@H]1[C@H]2[C@H](C=C3[C@@H]4CC[C@H]5Cc6nc7c(nc6C[C@]5(C)[C@@H]4C[C@@H](O)[C@@]32C)C[C@@H]2CC[C@@H]3[C@H](CC(=O)[C@]34C[C@@H]3O[C@@]5(CCC(C)(C)O5)[C@@H](C)[C@@H]3[C@]4(C)O)[C@@]2(C)C7)O[C@]12C[C@](C)(CO)CO2` [RITTERAZINE W], the EC50 came out at 3630 nM.

Source of the values: ChEMBL document CHEMBL1144741, “Review of cytotoxic cephalostatins and ritterazines: isolation and synthesis” (2008).
